According to PubChem BioAssay (NCI):
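Briefly, cells in 96-well plates were exposed to five compound concentrations for 48 h, and endpoints were estimated by linear interpolation. The concentration for 50% growth inhibition is given as GI50. TGI: total growth inhibition.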

Key:
Assay in all cases: DTP human tumour cell line panel, 48 h
[1] = tested on: SNB-19 CNS
[2] = tested on: HL-60(TB) leukemia
[3] = tested on: SR leukemia
[4] = tested on: MALME-3M melanoma
[5] = tested on: U251 CNS
[6] = tested on: A498 renal
[7] = tested on: HCT-116 colon
[8] = tested on: SK-MEL-2 melanoma
[9] = tested on: CCRF-CEM leukemia

SMILES | TGI [1] [µM] | TGI [2] [µM] | TGI [3] [µM] | TGI [4] [µM] | TGI [5] [µM] | TGI [6] [µM] | TGI [7] [µM] | TGI [8] [µM] | TGI [9] [µM] | GI50 [1] [µM] | GI50 [2] [µM] | GI50 [8] [µM] | GI50 [4] [µM] | GI50 [5] [µM] | GI50 [6] [µM] | GI50 [7] [µM]
Cc1cc(C)nc(NS(=O)(=O)c2ccc(Nc3c4ccccc4nc4c(C(=O)Nc5ccc(S(=O)(=O)N=C(N)N)cc5)ccc(Cl)c34)cc2)n1 | 46.7 | 54 | 65.4 | > 100 | 34.6 | > 100 | 51.5 |  |  |  |  |  |  |  |  | 
Cn1c2c(c3ccccc31)CCN(CCCCN1CCc3c(n(C)c4ccccc34)C1=O)C2 | > 100 | > 100 |  | > 100 | > 100 | > 100 | > 100 | > 100 | > 100 |  |  |  |  |  |  | 
Nc1ccn(CCOC(=O)c2ccccc2)c(=O)n1 |  | > 100 |  | > 100 | > 100 | > 100 | > 100 | > 100 | > 100 |  |  |  |  |  |  | 
Nn1c(-c2ccccc2)nc2ccc(Br)cc2c1=O | > 100 | 76.8 |  | > 100 | > 100 | > 100 | > 100 | > 100 | 76.4 |  |  |  |  |  |  | 
CCC[CH2][Sn-]([CH2]CCC)([CH2]CCC)[O]c1cc(Cl)c(Cl)cc1Cl | 0.445 | 0.167 |  | 0.379 | 0.35 | 0.609 | 0.318 | 1.86 |  | 0.143 | 0.0184 | 0.377 | 0.174 | 0.179 | 0.22 | 0.154
O=C1C(=O)N(C(=O)c2ccc(Cl)c(Cl)c2)c2ccccc21 | > 100 | > 100 | > 100 |  | > 100 |  |  |  | > 100 |  |  |  |  |  |  | 
N#CCC(=O)Nc1cccc(C(F)(F)F)c1 | > 100 | > 100 | > 100 | > 100 | > 100 | > 100 | > 100 | > 100 | > 100 |  |  |  |  |  |  | 
COC(=O)C1CC2(CC3=C1CCCC3)OCCO2 (configuration not stated) | > 100 | > 100 |  | > 100 | > 100 | > 100 | > 100 | > 100 | > 100 |  |  |  |  |  |  | 
CCOC(=O)C(=O)Nc1nc2c(s1)C(=O)c1ccccc1C2=O | 31.9 |  | 23.4 | 25.8 | 31 | 33.2 | 27.7 | 31.7 | 69.8 |  |  |  |  |  |  | 
O=C1CC(O)C=C1Nc1ccc(Cl)cc1 (configuration not stated) | > 100 | 95.6 | 90.9 | > 100 | > 100 | 32.6 | > 100 | > 100 | > 100 |  |  |  |  |  |  | 
COc1cc(OC)c([C@@H]2OC(=O)C3C2C(=O)O[C@H]3c2cc(OC)c(OC)cc2OC)cc1OC (some centres not stated) | > 100 | > 100 | > 100 |  | > 100 | > 100 | > 100 | > 100 | > 100 |  |  |  |  |  |  | 
CNC(P(=O)([O-])[O-])P(=O)([O-])[O-].N.N.[Pt+2] | > 100 |  |  | > 100 | > 100 |  | > 100 | > 100 |  | > 100 |  | > 100 | > 100 | > 100 |  | > 100
Cc1cnc2c(C)ccc([N+](=O)[O-])c2c1NCCCN(C)C | > 100 | > 100 | > 100 | > 100 | > 100 |  | > 100 | > 100 | > 100 |  |  |  |  |  |  | 
CCOC(=O)[C@@]1(C)C=C2O[C@@H]3OC4(CCCCC4)O[C@@H]3C2=C2C(O)=CC=C(O)[C@]21C(=O)OC | > 68 | > 68 |  | > 68 | > 68 | > 68 | > 68 | > 68 | > 68 |  |  |  |  |  |  | 
CCc1cccc(C(C)C)c1NC(=O)C(=O)C(Cc1nc2ccccc2[nH]c1=O)C(=O)OC (configuration not stated) | > 100 | > 100 | > 100 | > 100 | > 100 | > 100 | > 100 | > 100 | > 100 |  |  |  |  |  |  | 
Cn1c(=O)nc2n(-c3ccc(Cl)cc3)c3ccc(Cl)cc3nc-2c1=O |  | 18.9 | 58 |  |  | 24.6 | 20.9 | 16.9 | 85.6 |  |  |  |  |  |  | 
O=c1c2ccccc2[nH]c(=S)n1-c1ccc(Br)cc1 | > 100 | > 100 | > 100 | > 100 | > 100 | > 100 | > 100 | > 100 |  |  |  |  |  |  |  | 
Cc1cc2c(c(C#N)c1C)NC(=O)CCC2=O |  | > 100 | > 100 |  | > 100 | > 100 | > 100 | > 100 | > 100 |  |  |  |  |  |  | 
